The subject of this test is M. truncatula. Briefly: Lateral root emergence in M. truncatula. It counts as in vivo, Medicago truncatula. The settings on record: 10^−7 M; fold induction relative to the control; FIG. 7. The procedure:
M. truncatula roots were treated with 10^−7 M CO4 or 10^−7 M NS-LCO and the effect on lateral root emergence was measured. The numbers in parentheses indicate the number of plants analyzed. The significance of the difference to the […] control plants, as measured using a t-test, is indicated. The treatments are measured as fold induction relative to the control. Error bars represent the standard error.
Accordingly, the disclosed method is limited in scope to treating non-leguminous plants, or seeds, seedlings or plant parts thereof.

The values that follow come from patent publication US10149472B2, “Chitin oligomers for use in promoting non-leguminous plant growth and development” (Wisconsin Alumni Research Foundation, priority 2015, dated 2018).

For the molecule `CC(=O)N[C@H]1[C@H](O[C@H]2[C@H](O)[C@@H](NC(C)=O)C(O)O[C@@H]2CO)O[C@H](CO)[C@@H](O[C@@H]2O[C@H](CO)[C@@H](O[C@@H]3O[C@H](CO)[C@@H](O)[C@H](O)[C@H]3NC(C)=O)[C@H](O)[C@H]2NC(C)=O)[C@@H]1O` (stereo partly shown) [CO4, tetra-N-acetylchitotetraose], the lateral root emergence entry is recorded as “could not induce lateral root emergence”.
